Holding throughout (assay type): biochemical
Experiment [1] has as its target JAK2 kinase (Homo sapiens, UniProt O60674). The experiment in a line: Inhibition assay of JAK2 kinase activity (ADP-Glo Kinase Assay). The source says:
Inhibition assay of JAK2 kinase activity: the method in ADP-Glo™ Kinase Assay (Promega, V9102) was used to determine the inhibitory activity of the test compounds against JAK2 kinase.

For experiment [2], the target named is JAK1 kinase (Homo sapiens, UniProt P23458). The experiment in a line: Inhibition assay of JAK1 kinase activity (ADP-Glo Kinase Assay). The text has this: Inhibition assay of JAK1 kinase activity: the method in ADP-Glo™ Kinase Assay (Promega, V9102) was used to determine the inhibitory activity of the test compounds against JAK1 kinase.
(In general: In ADP-Glo the light output rises with the ADP produced.)

Experiment [3] addresses T1, TYK2 kinase (Homo sapiens, UniProt P29597).
T1 construct: purchased Life Technologies PR8440C
Kind of experiment: Inhibition assay of TYK2 kinase activity (ADP-Glo Kinase Assay). The procedure: Determination of inhibition of TYK2 kinase activity by the examples compounds disclosed herein
Inhibition assay of TYK2 kinase activity: the method of ADP-Glo™ Kinase Assay (Promega, V9102) was used to determine the inhibitory activity of the test compounds against TYK2 kinase.
TYK2 kinase (purchased from Life Technologies, article number: PR8440C) was diluted to the 2-fold final concentration (0.8 ng/mL) using reaction buffer (40 mM Tris-HCl, pH 7.5; 20 mM MgCl2; 0.1 mg/mL BSA; 1 mM DTT), and added to a 384-well plate at 5 μL/well. The test drugs were subjected to a 10-fold gradient dilution, from 10 μM, to obtain 6 concentrations, and added to experimental wells of the 384-well plate at 2.5 μL/well. 5 μL of water and 2.5 μL of buffer were added to negative control wells. 5 μL of TYK2 and 2.5 μL of water were added to positive control wells. After incubating for 10 minutes at room temperature, the substrate ATP and polyE4Y1 (Sigma, P0275) were added at 2.5 μL/well, mixed well, and then reacted at room temperature for 60 minutes. After the reaction was completed, the kinase activity was detected according to the instruction of the kit. First, the ADP-Glo reaction reagent was added at 10 μL/well, mixed well, and reacted at room temperature for 40 minutes. The kinase detection reagent was then added at 20 μL/well, mixed well, and then reacted at room temperature for 30 minutes. The detection was then performed and the IC50s of test drugs were calculated.

Molecules are shown by their SMILES.

T1 sequence (P29597 whole entry): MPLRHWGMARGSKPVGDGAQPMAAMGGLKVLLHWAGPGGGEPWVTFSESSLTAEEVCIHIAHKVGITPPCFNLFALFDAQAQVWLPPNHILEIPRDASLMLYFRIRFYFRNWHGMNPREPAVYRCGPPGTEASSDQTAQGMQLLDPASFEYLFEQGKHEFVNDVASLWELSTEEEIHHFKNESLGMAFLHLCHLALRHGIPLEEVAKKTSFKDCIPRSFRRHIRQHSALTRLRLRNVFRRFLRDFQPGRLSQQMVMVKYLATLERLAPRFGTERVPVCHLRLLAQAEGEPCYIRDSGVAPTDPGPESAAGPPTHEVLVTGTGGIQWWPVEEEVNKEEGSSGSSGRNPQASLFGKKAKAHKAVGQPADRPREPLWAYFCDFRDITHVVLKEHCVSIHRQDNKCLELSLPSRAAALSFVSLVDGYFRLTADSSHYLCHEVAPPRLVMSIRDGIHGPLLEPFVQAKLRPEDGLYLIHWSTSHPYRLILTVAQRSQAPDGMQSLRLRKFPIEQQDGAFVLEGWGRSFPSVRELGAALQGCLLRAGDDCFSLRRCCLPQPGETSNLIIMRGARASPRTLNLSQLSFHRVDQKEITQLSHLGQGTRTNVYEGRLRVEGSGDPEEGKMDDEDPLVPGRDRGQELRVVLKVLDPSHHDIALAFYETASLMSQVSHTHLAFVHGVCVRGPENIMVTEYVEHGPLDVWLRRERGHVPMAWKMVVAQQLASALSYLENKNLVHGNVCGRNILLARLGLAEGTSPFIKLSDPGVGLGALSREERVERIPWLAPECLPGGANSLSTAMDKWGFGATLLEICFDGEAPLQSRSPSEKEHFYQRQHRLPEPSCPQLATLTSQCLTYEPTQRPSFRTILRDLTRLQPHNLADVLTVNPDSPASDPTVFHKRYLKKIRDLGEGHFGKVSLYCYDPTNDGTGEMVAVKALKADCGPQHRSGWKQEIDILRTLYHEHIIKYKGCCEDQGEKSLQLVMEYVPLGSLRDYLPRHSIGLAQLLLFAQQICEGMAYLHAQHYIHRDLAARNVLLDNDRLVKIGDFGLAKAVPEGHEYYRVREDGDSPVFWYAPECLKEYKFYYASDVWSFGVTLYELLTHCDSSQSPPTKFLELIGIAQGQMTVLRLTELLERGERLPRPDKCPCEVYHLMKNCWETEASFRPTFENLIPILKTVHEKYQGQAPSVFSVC
JAK1 kinase, sequence (P23458 whole entry): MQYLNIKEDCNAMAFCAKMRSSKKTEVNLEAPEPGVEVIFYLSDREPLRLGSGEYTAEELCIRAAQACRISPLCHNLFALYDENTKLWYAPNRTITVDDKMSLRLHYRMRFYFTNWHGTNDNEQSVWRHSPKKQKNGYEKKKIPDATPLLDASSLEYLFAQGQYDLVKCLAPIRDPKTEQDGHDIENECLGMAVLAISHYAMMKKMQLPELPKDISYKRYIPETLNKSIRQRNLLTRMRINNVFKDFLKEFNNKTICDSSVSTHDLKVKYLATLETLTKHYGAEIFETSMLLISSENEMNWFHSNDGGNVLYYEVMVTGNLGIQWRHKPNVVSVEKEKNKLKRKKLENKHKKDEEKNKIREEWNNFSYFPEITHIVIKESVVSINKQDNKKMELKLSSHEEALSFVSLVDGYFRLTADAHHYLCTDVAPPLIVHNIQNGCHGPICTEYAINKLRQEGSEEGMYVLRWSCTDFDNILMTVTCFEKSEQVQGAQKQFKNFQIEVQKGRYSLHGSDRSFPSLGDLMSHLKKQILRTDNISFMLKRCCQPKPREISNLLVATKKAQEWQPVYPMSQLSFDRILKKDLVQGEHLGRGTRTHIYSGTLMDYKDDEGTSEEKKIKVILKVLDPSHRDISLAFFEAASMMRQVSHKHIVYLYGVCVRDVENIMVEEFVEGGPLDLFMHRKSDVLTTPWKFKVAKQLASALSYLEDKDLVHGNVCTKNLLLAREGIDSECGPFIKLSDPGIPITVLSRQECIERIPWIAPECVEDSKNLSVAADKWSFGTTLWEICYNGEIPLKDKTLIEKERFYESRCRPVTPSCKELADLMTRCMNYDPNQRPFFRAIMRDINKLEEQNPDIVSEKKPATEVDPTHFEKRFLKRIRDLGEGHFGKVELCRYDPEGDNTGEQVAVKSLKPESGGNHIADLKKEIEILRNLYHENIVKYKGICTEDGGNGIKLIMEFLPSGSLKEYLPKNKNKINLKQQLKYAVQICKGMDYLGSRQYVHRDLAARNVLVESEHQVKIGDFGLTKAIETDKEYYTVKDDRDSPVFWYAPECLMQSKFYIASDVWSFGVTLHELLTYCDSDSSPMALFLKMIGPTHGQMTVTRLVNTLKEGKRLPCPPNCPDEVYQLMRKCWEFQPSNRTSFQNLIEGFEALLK
JAK2 kinase, sequence (O60674 whole entry): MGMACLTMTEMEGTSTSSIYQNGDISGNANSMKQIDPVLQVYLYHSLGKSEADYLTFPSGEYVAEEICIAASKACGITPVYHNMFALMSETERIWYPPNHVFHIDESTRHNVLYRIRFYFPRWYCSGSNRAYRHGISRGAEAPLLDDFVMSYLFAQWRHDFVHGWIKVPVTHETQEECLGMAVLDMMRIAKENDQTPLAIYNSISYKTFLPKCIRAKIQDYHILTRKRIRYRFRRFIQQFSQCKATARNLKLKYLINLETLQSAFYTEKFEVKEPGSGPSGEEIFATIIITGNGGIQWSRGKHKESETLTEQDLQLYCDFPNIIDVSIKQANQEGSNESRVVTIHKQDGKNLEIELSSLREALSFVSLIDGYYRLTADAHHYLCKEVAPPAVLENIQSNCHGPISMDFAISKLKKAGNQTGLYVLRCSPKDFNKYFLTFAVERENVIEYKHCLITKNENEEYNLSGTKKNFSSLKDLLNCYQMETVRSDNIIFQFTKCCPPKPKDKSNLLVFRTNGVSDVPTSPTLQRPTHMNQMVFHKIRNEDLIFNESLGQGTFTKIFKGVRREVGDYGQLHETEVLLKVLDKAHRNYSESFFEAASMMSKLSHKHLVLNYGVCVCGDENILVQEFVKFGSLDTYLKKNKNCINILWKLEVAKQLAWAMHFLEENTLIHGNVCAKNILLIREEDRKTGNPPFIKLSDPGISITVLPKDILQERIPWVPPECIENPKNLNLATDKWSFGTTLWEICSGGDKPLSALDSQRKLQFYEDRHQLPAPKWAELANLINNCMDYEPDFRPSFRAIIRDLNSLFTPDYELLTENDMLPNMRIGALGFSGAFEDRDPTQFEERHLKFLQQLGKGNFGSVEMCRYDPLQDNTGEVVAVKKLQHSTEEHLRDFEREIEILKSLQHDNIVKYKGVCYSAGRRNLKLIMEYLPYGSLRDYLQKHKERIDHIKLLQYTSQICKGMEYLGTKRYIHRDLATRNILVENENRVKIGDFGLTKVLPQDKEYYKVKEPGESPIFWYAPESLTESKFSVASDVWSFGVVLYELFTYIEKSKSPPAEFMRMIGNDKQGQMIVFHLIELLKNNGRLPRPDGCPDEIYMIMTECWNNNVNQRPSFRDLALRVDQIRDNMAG

For orientation: IC50 means the concentration at which inhibition is half-maximal. With `NC(=O)c1cnc(Nc2ccc3c(c2)NCC(O)CO3)nc1NCC(F)(F)F` (stereo not shown) [Example 7, 4-((2,2,2-trifluoroethyl)amino)-2-((3-hydroxy-2,3,4,5-tetrahydro-benzo[b][1,4]oxazepin-7-yl)amino)pyrimidin-5-carboxamide], the results for the IC50 in experiment [1], in experiment [2] and in experiment [3] were 10 to 100 nM, 10 to 100 nM and less than 10 nM, respectively.

For the compound `NC(=O)c1cnc(Nc2ccc3c(c2)NCC(O)CO3)nc1NCc1ccccc1` (stereo not shown) [Example 9, 4-(benzylamino)-2-((3-hydroxy-2,3,4,5-tetrahydro-benzo[b][1,4]oxazepin-7-yl)amino)pyrimidin-5-carboxamide], the IC50 is 10 to 100 nM in experiment [1], less than 10 nM in experiment [2] and less than 10 nM in experiment [3].

`NC(=O)c1cnc(Nc2ccc3c(c2)NC[C@H](O)CO3)nc1NC1CC1` [Example 26, (S)-4-(cyclopropylamino)-2-((3-hydroxy-2,3,4,5-tetrahydro-benzo[b][1,4]oxazepin-7-yl)amino)pyrimidin-5-carboxamide]: the half-maximal inhibitory concentration (IC50) in experiment [1], in experiment [2] and in experiment [3] was less than 10 nM in each case.

Consider `CO[C@H]1CNc2cc(Nc3ncc(C(N)=O)c(NC4CC4)n3)ccc2OC1` [Example 27, (S)-4-(cyclopropylamino)-2-((3-methoxy-2,3,45-tetrahydro-benzo[b][1,4]oxazepin-7-yl)amino)pyrimidin-5-carboxamide], for which the values for the IC50 in experiment [1], in experiment [2] and in experiment [3] were 10 to 100 nM, less than 10 nM and less than 10 nM, respectively.

`NC(=O)c1cnc(Nc2ccc3c(c2)NC[C@H](O)CO3)nc1NC1CCCCC1` [Example 33, 4-(cyclohexylamino)-2-(((S)-2,3,4,5-tetrahydro-3-hydroxybenzo[b][1,4]oxazepin-7-yl)amino)pyrimidin-5-carboxamide]: the IC50 in experiment [2] is 10 to 100 nM; in experiment [3] it was less than 10 nM.

In the case of `NC(=O)c1cnc(Nc2ccc3c(c2)NC[C@H](O)CO3)nc1Nc1cccc(-c2nc[nH]n2)c1` [Example 35], the half-inhibitory concentration (IC50) in experiment [2] was 10 to 100 nM; in experiment [3], less than 10 nM.

Regarding `NC(=O)c1cnc(Nc2ccc3c(c2)NC[C@H](O)CO3)nc1NC1CC(O)C1` (stereo partly drawn) [Example 36, 4-((3-hydroxycyclobutyl)amino)-2-(((S)-2,3,4,5-tetrahydro-3-hydroxybenzo[b][1,4]oxazepin-7-yl)amino)pyrimidin-5-carboxamide], the IC50 in experiment [2] was 10 to 100 nM; in experiment [3], less than 10 nM.

As to `NC(=O)c1cnc(Nc2ccc3c(c2)NC[C@H](O)CO3)nc1NC1CCC(O)C1` (stereo partly drawn) [Example 37, 4-((3-hydroxycyclopentyl)amino)-2-(((S)-2,3,4,5-tetrahydro-3-hydroxybenzo[b][1,4]oxazepin-7-yl)amino)pyrimidin-5-carboxamide], the IC50 in experiment [2] and in experiment [3] was less than 10 nM each time.

Take `NC(=O)c1cnc(Nc2ccc3c(c2)NC[C@H](O)CO3)nc1NC1CCC(O)CC1` (stereo partly drawn) [Example 39, 4-((4-hydroxycyclohexyl)amino)-2(((S)-2,3,4,5-tetrahydro-3-hydroxybenzo[b][1,4]oxazepin-7-yl)amino)pyrimidin-5-carboxamide]: the values for the concentration for half-maximal inhibition (IC50) in experiment [2] and in experiment [3] were 10 to 100 nM and less than 10 nM, respectively.

As for `CCNc1nc(Nc2ccc3c(c2)NC[C@H](O)CO3)ncc1C(N)=O` [Example 40, 4-(ethylamino)-2-(((S)-2,3,4,5-tetrahydro-3-hydroxybenzo[b][1,4]oxazepin-7-yl)amino)pyrimidin-5-carboxamide], the values for the IC50 in experiment [2] and in experiment [3] were 10 to 100 nM and less than 10 nM, respectively.

Take `NC(=O)c1cnc(Nc2ccc3c(c2)NC[C@H](O)CO3)nc1NCc1ccnc2[nH]ccc12` [Example 41, 4-(((1H-pyrrolo[2,3-b]pyridin-4-yl)methyl)amino)-2-(((S)-2,3,4,5-tetrahydro-3-hydroxybenzo[b][1,4]oxazepin-7-yl)amino)pyrimidin-5-carboxamide]: the IC50 in experiment [2] and in experiment [3] was less than 10 nM in each case.

In the case of `N#CCC(=O)N1CCC(Nc2nc(Nc3ccc4c(c3)NC[C@H](O)CO4)ncc2C(N)=O)C1` (stereo partly drawn) [Example 42, 4-((1-(2-cyanoacetyl)pyrrolidin-3-yl)amino)-2-(((S)-2,3,4,5-tetrahydro-3-hydroxybenzo[b][1,4]oxazepin-7-yl)amino)pyrimidin-5-carboxamide], the results for the IC50 in experiment [2] and in experiment [3] were 10 to 100 nM and less than 10 nM, respectively.

With `NC(=O)c1cnc(Nc2ccc3c(c2)NC[C@H](O)CO3)nc1NC12CC3CC(CC(O)(C3)C1)C2` [Example 43, 4-((1-hydroxyadamantan-3-yl)amino)-2-(((S)-2,3,4,5-tetrahydro-3-hydroxybenzo[b][1,4]oxazepin-7-yl)amino)pyrimidin-5-carboxamide], the IC50 in experiment [2] and in experiment [3] was less than 10 nM in each case.

In the case of `NC(=O)c1cnc(Nc2ccc3c(c2)NC[C@H](O)CO3)nc1NC12CC3CC(CC(C3)C1)C2` [Example 45, 4-(adamantan-1-ylamino)-2-(((S)-2,3,4,5-tetrahydro-3-hydroxybenzo[bb][1,4]oxazepin-7-yl)amino)pyrimidin-5-carboxamide], the IC50 in experiment [2] and in experiment [3] was 10 to 100 nM throughout.

Turning to `CNc1nc(Nc2ccc3c(c2)NC[C@H](O)CO3)ncc1C(N)=O` [Example 47, 4-(methylamino)-2-(((S)-2,3,4,5-tetrahydro-3-hydroxybenzo[b][1,4]oxazepin-7-yl)amino)pyrimidin-5-carboxamide], the concentration for half-maximal inhibition (IC50) in experiment [2] was 10 to 100 nM; in experiment [3], less than 10 nM.

Regarding `NC(=O)c1cnc(Nc2ccc3c(c2)NC[C@H](O)CO3)nc1NCCCCO` [Example 48, 4-((4-hydroxybutyl)amino)-2-(((S)-2,3,4,5-tetrahydro-3-hydroxybenzo[b][1,4]oxazepin-7-yl)amino)pyrimidin-5-carboxamide], the half-maximal inhibitory concentration (IC50) in experiment [1], in experiment [2] and in experiment [3] was less than 10 nM in each case.

For `NC(=O)c1cnc(Nc2ccc3c(c2)NC[C@H](O)CO3)nc1NC12CC3CC(C1)C(O)C(C3)C2` (stereo partly drawn) [Example 49, 4-((4-hydroxyadamantan-1-yl)amino)-2-(((S)-2,3,4,5-tetrahydro-3-hydroxybenzo[b][1,4]oxazepin-7-yl)amino)pyrimidin-5-carboxamide], the IC50 in experiment [1], in experiment [2] and in experiment [3] was less than 10 nM throughout.

As to `COCCCNc1nc(Nc2ccc3c(c2)NC[C@H](O)CO3)ncc1C(N)=O` [Example 52, 4-((3-methoxypropyl)amino)-2-(((S)-2,3,4,5-tetrahydro-3-hydroxybenzo[b][1,4]oxazepin-7-yl)amino)pyrimidin-5-carboxamide], the concentration for half-maximal inhibition (IC50) in experiment [2] is 10 to 100 nM; in experiment [3] it was less than 10 nM.

`NC(=O)c1cnc(Nc2ccc3c(c2)NC[C@H](O)CO3)nc1NC1CNC1` [Example 58, 4-(azetidin-3-ylamino)-2-(((S)-2,3,4,5-tetrahydro-3-hydroxybenzo[b][1,4]oxazepin-7-yl)amino)pyrimidin-5-carboxamide]: the IC50 in experiment [2] and in experiment [3] was 10 to 100 nM each time.

For the compound `NC(=O)c1cnc(Nc2ccc3c(c2)NC[C@H](O)CO3)nc1NCCCN1CCOCC1` [Example 62, 4-((3-morpholinopropyl)amino)-2-(((S)-2,3,4,5-tetrahydro-3-hydroxybenzo[b][1,4]oxazepin-7-yl)amino)pyrimidin-5-carboxamide], the half-inhibitory concentration (IC50) in experiment [2] and in experiment [3] was 10 to 100 nM each time.

For the compound `CCCO[C@@H]1CNc2cc(Nc3ncc(C(N)=O)c(NC4CC4)n3)ccc2OC1` [Example 84, 4-(cyclopropylamino)-2-(((R)-2,3,4,5-tetrahydro-3-propoxybenzo[b][1,4]oxazepin-7-yl)amino)pyrimidin-5-carboxamide], the IC50 in experiment [1], in experiment [2] and in experiment [3] was 10 to 100 nM each time.

These data come from patent publication US20200172529A1, “Chemical Compound, Pharmaceutical Composition Thereof, and Use and Application Thereof” (Beijing Hanmi Pharm. Co., Ltd., priority 2017, published 2020).
